# Assays:
# Type in all cases: functional
# M14 = experiment: Growth inhibition of human M14 cells at 10^-5 M incubated for 48 hrs by sulforhodamine B assay; settings: M14, 48 h, read-out: GI
# TK-10 = experiment: Growth inhibition of human TK10 cells at 10^-5 M incubated for 48 hrs by sulforhodamine B assay; settings: TK-10, 48 h, read-out: GI
# IGROV-1 = experiment: Growth inhibition of human IGROV1 cells at 10^-5 M incubated for 48 hrs by sulforhodamine B assay; settings: IGROV-1, 48 h, read-out: GI
# HOP-92 = experiment: Growth inhibition of human HOP92 cells at 10^-5 M incubated for 48 hrs by sulforhodamine B assay; settings: HOP-92, 48 h, read-out: GI
# A498 = experiment: Growth inhibition of human A498 cells at 10^-5 M incubated for 48 hrs by sulforhodamine B assay; settings: A498, 48 h, read-out: GI
# NCI-H522 = experiment: Growth inhibition of human NCI-H522 cells at 10^-5 M incubated for 48 hrs by sulforhodamine B assay; settings: NCI-H522, 48 h, read-out: GI
# HT-29 = experiment: Growth inhibition of human HT-29 cells at 10^-5 M incubated for 48 hrs by sulforhodamine B assay; settings: HT-29, 48 h, read-out: GI
# DU-145 = experiment: Growth inhibition of human DU145 cells at 10^-5 M incubated for 48 hrs by sulforhodamine B assay; settings: DU-145, 48 h, read-out: GI
# SW-620 = experiment: Growth inhibition of human SW620 cells at 10^-5 M incubated for 48 hrs by sulforhodamine B assay; settings: SW-620, 48 h, read-out: GI
# KM12 = experiment: Growth inhibition of human KM12 cells at 10^-5 M incubated for 48 hrs by sulforhodamine B assay; settings: KM12, 48 h, read-out: GI
# NCI-H226 = experiment: Growth inhibition of human NCI-H226 cells at 10^-5 M incubated for 48 hrs by sulforhodamine B assay; settings: NCI-H226, 48 h, read-out: GI
# A549 = experiment: Growth inhibition of human A549/ATCC cells at 10^-5 M incubated for 48 hrs by sulforhodamine B assay; settings: A549, 48 h, read-out: GI
# NCI-H322M = experiment: Growth inhibition of human NCI-H322M cells at 10^-5 M incubated for 48 hrs by sulforhodamine B assay; settings: read-out: GI
# MCF7 = experiment: Growth inhibition of human MCF7 cells at 10^-5 M incubated for 48 hrs by sulforhodamine B assay; settings: MCF7, 48 h, read-out: GI
# UO-31 = experiment: Growth inhibition of human UO31 cells at 10^-5 M incubated for 48 hrs by sulforhodamine B assay; settings: UO-31, 48 h, read-out: GI
# BT-549 = experiment: Growth inhibition of human BT549 cells at 10^-5 M incubated for 48 hrs by sulforhodamine B assay; settings: BT-549, 48 h, read-out: GI
# NCI-H23 = experiment: Growth inhibition of human NCI-H23 cells at 10^-5 M incubated for 48 hrs by sulforhodamine B assay; settings: NCI-H23, 48 h, read-out: GI
# SR = experiment: Growth inhibition of human SR cells at 10^-5 M incubated for 48 hrs by sulforhodamine B assay; settings: read-out: GI
# MDA-MB-435 = experiment: Growth inhibition of human MDA-MB-435 cells at 10^-5 M incubated for 48 hrs by sulforhodamine B assay; settings: MDA-MB-435, 48 h, read-out: GI
# EKVX = experiment: Growth inhibition of human EKVX cells at 10^-5 M incubated for 48 hrs by sulforhodamine B assay; settings: read-out: GI
# ACHN = experiment: Growth inhibition of human ACHN cells at 10^-5 M incubated for 48 hrs by sulforhodamine B assay; settings: read-out: GI
# SF-295 = experiment: Growth inhibition of human SF295 cells at 10^-5 M incubated for 48 hrs by sulforhodamine B assay; settings: SF-295, 48 h, read-out: GI
# HL-60(TB) = experiment: Growth inhibition of human HL-60(TB) cells at 10^-5 M incubated for 48 hrs by sulforhodamine B assay; settings: HL-60, 48 h, read-out: GI
# CAKI-1 = experiment: Growth inhibition of human Caki1 cells at 10^-5 M incubated for 48 hrs by sulforhodamine B assay; settings: CAKI-1, 48 h, read-out: GI
# CCRF-CEM = experiment: Growth inhibition of human CCRF-CEM cells at 10^-5 M incubated for 48 hrs by sulforhodamine B assay; settings: read-out: GI
# OVCAR-8 = experiment: Growth inhibition of human OVCAR8 cells at 10^-5 M incubated for 48 hrs by sulforhodamine B assay; settings: OVCAR-8, 48 h, read-out: GI
# SK-MEL-28 = experiment: Growth inhibition of human SK-MEL-28 cells at 10^-5 M incubated for 48 hrs by sulforhodamine B assay; settings: SK-MEL-28, 48 h, read-out: GI
# HCT-116 = experiment: Growth inhibition of human HCT116 cells at 10^-5 M incubated for 48 hrs by sulforhodamine B assay; settings: HCT-116, 48 h, read-out: GI
# K562 = experiment: Growth inhibition of human K562 cells at 10^-5 M incubated for 48 hrs by sulforhodamine B assay; settings: K562, 48 h, read-out: GI
# HOP-62 = experiment: Growth inhibition of human HOP62 cells at 10^-5 M incubated for 48 hrs by sulforhodamine B assay; settings: HOP-62, 48 h, read-out: GI
# SF-268 = experiment: Growth inhibition of human SF268 cells at 10^-5 M incubated for 48 hrs by sulforhodamine B assay; settings: SF-268, 48 h, read-out: GI
# MDA-MB-231 = experiment: Growth inhibition of human MDA-MB-231 cells at 10^-5 M incubated for 48 hrs by sulforhodamine B assay; settings: MDA-MB-231, 48 h, read-out: GI
# MDA-MB-468 = experiment: Growth inhibition of human MDA-MB-468 cells at 10^-5 M incubated for 48 hrs by sulforhodamine B assay; settings: MDA-MB-468, 48 h, read-out: GI
# MOLT-4 = experiment: Growth inhibition of human MOLT4 cells at 10^-5 M incubated for 48 hrs by sulforhodamine B assay; settings: MOLT-4, 48 h, read-out: GI
# Malme-3M = experiment: Growth inhibition of human MALME-3M cells at 10^-5 M incubated for 48 hrs by sulforhodamine B assay; settings: read-out: GI
# T47D = experiment: Growth inhibition of human T47D cells at 10^-5 M incubated for 48 hrs by sulforhodamine B assay; settings: read-out: GI
# OVCAR-3 = experiment: Growth inhibition of human OVCAR3 cells at 10^-5 M incubated for 48 hrs by sulforhodamine B assay; settings: OVCAR-3, 48 h, read-out: GI
# OVCAR-4 = experiment: Growth inhibition of human OVCAR4 cells at 10^-5 M incubated for 48 hrs by sulforhodamine B assay; settings: OVCAR-4, 48 h, read-out: GI
# Hs-578T = experiment: Growth inhibition of human Hs 578T cells at 10^-5 M incubated for 48 hrs by sulforhodamine B assay; settings: read-out: GI
Structure (SMILES),inhibition of growth at 10 µM (M14),inhibition of growth at 10 µM (TK-10),inhibition of growth at 10 µM (IGROV-1),inhibition of growth at 10 µM (HOP-92),inhibition of growth at 10 µM (A498),inhibition of growth at 10 µM (NCI-H522),inhibition of growth at 10 µM (HT-29),inhibition of growth at 10 µM (DU-145),inhibition of growth at 10 µM (SW-620),inhibition of growth at 10 µM (KM12),inhibition of growth at 10 µM (NCI-H226),inhibition of growth at 10 µM (A549),inhibition of growth at 10 µM (NCI-H322M),inhibition of growth at 10 µM (MCF7),inhibition of growth at 10 µM (UO-31),inhibition of growth at 10 µM (BT-549),inhibition of growth at 10 µM (NCI-H23),inhibition of growth at 10 µM (SR),inhibition of growth at 10 µM (MDA-MB-435),inhibition of growth at 10 µM (EKVX),further results
N#Cc1cnn(C2=Nc3c(sc4ccc(Cl)cc34)C(c3cccc([N+](=O)[O-])c3)N2)c1N (stereo not drawn),-2.52%,25.1%,23.1%,1.55%,-6.43%,4.1%,-17.9%,-10.5%,-4.05%,3.84%,19.2%,-3.91%,6.34%,29.9%,41.2%,-5.52%,19.8%,-0.62%,-7.15%,20.9%,inhibition of growth at 10 µM (ACHN): 15.2%; inhibition of growth at 10 µM (SF-295): -2.52%; inhibition of growth at 10 µM (HL-60(TB)): -5.54%; inhibition of growth at 10 µM (CAKI-1): -3.28%; inhibition of growth at 10 µM (CCRF-CEM): -11.9%; inhibition of growth at 10 µM (OVCAR-8): -2.67%; inhibition of growth at 10 µM (SK-MEL-28): -13.6%; inhibition of growth at 10 µM (HCT-116): 5.22%; inhibition of growth at 10 µM (K562): 1.28%; inhibition of growth at 10 µM (HOP-62): 5.61%; inhibition of growth at 10 µM (SF-268): 5.36%; inhibition of growth at 10 µM (MDA-MB-231): 22.9%; inhibition of growth at 10 µM (MDA-MB-468): 3.7%; inhibition of growth at 10 µM (MOLT-4): 8.24%; inhibition of growth at 10 µM (Malme-3M): -6.04%; inhibition of growth at 10 µM (T47D): 10.1%; inhibition of growth at 10 µM (OVCAR-3): -7.11%; inhibition of growth at 10 µM (OVCAR-4): -1.38%; inhibition of growth at 10 µM (Hs-578T): 3.32%
O=C1/C(=C\c2cccc(Br)c2)Sc2ccc(Cl)cc21,-1.09%,-29.1%,-2.64%,-15.1%,13.5%,5.63%,-10.6%,-12.3%,-1.25%,-0.19%,10.4%,2.51%,9.44%,-12.3%,-29.1%,-26.2%,8.26%,-4.42%,-14%,-0.43%,inhibition of growth at 10 µM (ACHN): 3.66%; inhibition of growth at 10 µM (SF-295): -0.53%; inhibition of growth at 10 µM (HL-60(TB)): -5.53%; inhibition of growth at 10 µM (CAKI-1): 10.1%; inhibition of growth at 10 µM (CCRF-CEM): -14.5%; inhibition of growth at 10 µM (OVCAR-8): -3.52%; inhibition of growth at 10 µM (SK-MEL-28): -20.5%; inhibition of growth at 10 µM (HCT-116): 0.42%; inhibition of growth at 10 µM (K562): -7.99%; inhibition of growth at 10 µM (HOP-62): 3.1%; inhibition of growth at 10 µM (SF-268): 2.33%; inhibition of growth at 10 µM (MDA-MB-231): -3.31%; inhibition of growth at 10 µM (MDA-MB-468): -18.6%; inhibition of growth at 10 µM (MOLT-4): -5.33%; inhibition of growth at 10 µM (Malme-3M): -1.08%; inhibition of growth at 10 µM (T47D): 1.47%; inhibition of growth at 10 µM (OVCAR-3): -12.1%; inhibition of growth at 10 µM (OVCAR-4): -9.77%; inhibition of growth at 10 µM (Hs-578T): -8.14%

# Source: ChEMBL document CHEMBL4414672, “Synthesis of certain benzothieno[3,2-d]pyrimidine derivatives as a selective SIRT2 inhibitors” (Eur J Med Chem, 2020)
